Laboratory results published in a melting point compilation (Tetko et al.; mined from patent text by program, amines drawn as free bases though some values may be those of a salt).

Compound	melting point [°C]
COc1cccc(Oc2cccnc2C#N)c1	112 to 114
Fc1ccc([C@]2(Cn3nc[nH]c3=S)O[C@H]2c2ccccc2Cl)c(F)c1 (racemic)	180
COC(=O)c1ncc[nH]1	187 to 188
CCc1cc(O)n2nc(CC)c(C)c2n1	287
Cc1ccc(S(=O)(=O)NC[C@H](C)N)cc1	82 to 86
COc1ccc(C(=O)c2cccc(N)c2)cc1OC	157 to 175
O=C(c1ccccc1)c1cccc2c1SCC2C(=O)O (configuration not stated)	153 to 156
Cc1nc(C)c(Cl)c(NCc2ccc(Oc3ccc4ncc([N+](=O)[O-])n4n3)cn2)n1	194 to 198
O=S(=O)(NCCO)c1ccc(-c2ccc(S(=O)(=O)NCCO)cc2)cc1	203 to 206
CCn1nnc(-c2ccc(C(=O)N[C@@H]3CCCC[C@@H]3c3ccc(OC)c(OC)c3)cc2)n1	188 to 192
N#Cc1cccc(CSCCNC(=O)c2c(Cl)cccc2Cl)c1	123 to 125
N#CCOC(=O)c1ccc2nc3ccc(O)cc3c(=O)n2c1	260 to 262
O=C1Nc2c(F)cc(F)cc2C1=O	188 to 194
CCc1cc(CC)c2oc(C(=O)O)cc(=O)c2c1O	218 to 220
COc1cc2c(cc1C(C)=O)CC1(CCCCN1C(=O)C(F)(F)F)CC2 (configuration not stated)	156 to 157
COc1ccc(Nc2cnc3c(NCc4ccccc4)nc(NCCO)nc3c2)cc1	126 to 127
CCOC(=O)c1cc(C(C)=O)on1	67 to 68
CCOC(Cc1ccc(OCCN2CCOc3ccccc32)cc1)C(=O)NCc1ccccc1 (configuration not stated)	94 to 96
CCOC(=O)c1ccc(OCC#Cc2ccccc2)c(OC)c1	62 to 65
CC(C(=O)N(C)C)n1ccc(-c2cccc([N+](=O)[O-])c2)n1 (configuration not stated)	117 to 119
CC(=O)Nc1nc(CCc2ccc(C(=O)NC(=N)N)cc2)c(Cc2ccc(S(C)(=O)=O)cc2)s1	108 to 110

Compound	melting point [°C]
CCOC(=O)c1cnc2ccc(C)cc2c1O	> 260
CC1(C)COC(=N)N1c1nc(-c2ccc(C#N)cc2)cs1	158 to 161
Cc1cc(-c2c(-c3ccc(S(C)(=O)=O)cc3)cnn(-c3ccc(F)cc3)c2=O)ccc1F	168 to 170
COc1cc(OC)cc(-c2nc(-c3ccccn3)no2)c1	145 to 148
COc1ccc(NC(=O)N[C@H]2C[C@@](N)(C(=O)O)[C@@H]3[C@@H](C(=O)O)[C@@H]32)cc1 (relative stereo)	> 250
CCCOc1ccc(CCC(=O)N2CCOCC2)cc1-c1nc2c(c(C)nn2CCC)c(=O)[nH]1	132 to 133
O=c1[nH]c2cc(Cl)ccc2c(O)c1Sc1ccc(O)cc1	> 300
CC(C)C1OC(=Nc2nccs2)c2c1nc1c(C(F)(F)F)cccc1c2O (configuration not stated)	246 to 248
Cc1c(-c2ccc3c(c2)N(C)C(=O)CS3)nc2ccccn12	191
Cc1nn(-c2cncc(F)c2)cc1[N+](=O)[O-]	90 to 92
c1ccc2c(c1)OCc1c(-c3nc(C4CC4)no3)ncn1-2	169 to 173
CC(=Cc1ccc(C(C)(C)C)cc1)C(=O)NC(C)c1ccc(NS(C)(=O)=O)c(F)c1 (configuration not stated)	92 to 94
O=C(O)c1cn(C2CC2)c2nc(N3CCC(c4cccnc4)C3)c(F)cc2c1=O (configuration not stated)	226 to 228
CN1C(=O)c2cccnc2N(CC(=O)OC(C)(C)C)c2ccccc21	64 to 65
C[C@H]1C(=O)N[C@@H](Cc2c[nH]c3ccccc23)C(=O)N1OCc1ccccc1	172 to 174
Oc1ccc(-c2noc3cc(O)ccc23)c(O)c1	300 to 305
CCN1C(c2nnc(-c3ccccc3)o2)=C(OC(=O)C2CCCC2)c2ccccc2S1(=O)=O	194 to 196
CC(=O)N(CC(C)C)C1NC(=O)N(c2ccc(C(=O)O)cc2)C(=O)N1	191 to 193
O=C1NC(=S)SC1=Cc1ccc(Oc2ccccc2)cc1	195 to 200
CCOc1cc(OCCCc2cn(-c3ccc(C(F)(F)F)cn3)nc2OCc2ccccc2)ccc1CCC(=O)O	106 to 107
O=C(O)CCC12CCC(=O)N1C(=O)CC2	179 to 181

Compound	melting point [°C]
NC(=O)c1cn(C(CO)CCc2ccccc2)cn1 (configuration not stated)	127 to 130
CC(C)=CCn1nc(C(=O)c2cccc(O)c2)c2ccccc21	92 to 94
O=[N+]([O-])c1nccn1C1CCCCO1 (configuration not stated)	50
CCOC(=O)C(=O)N(CCBr)N=Cc1ccccc1	56 to 57
CN(C)c1nn(-c2cc(F)c(C#N)cc2F)c(=O)n1C(F)F	188 to 190
CCOC(=O)C1=CN(c2ccc(Cl)c(Cl)c2Cl)N(N)C1	158 to 159
Cc1nc(Nc2ccc(Cl)cc2)sc1C(=O)O	> 250
CC(C)CC(NC(=O)C(Cc1c[nH]cn1)NC(=O)C(CC(=O)N1CCCCC1)Cc1cccc2ccccc12)C(O)C(=O)OC(C)C (mixture of isomers)	91 to 97
Cc1nc2c(O)cccn2c1C=O	251 to 252
CC(=O)Oc1cccc2c1OC(C)(C)C2	49 to 50
COC(=O)c1ccc(Cn2ccn(C3CCc4ccccc4C3)c2=S)cc1 (configuration not stated)	133 to 135
O=C(O)c1cnn2c(C(F)F)cc(-c3ccc(C(F)(F)F)c(F)c3)nc12	233
Cc1c(C)c2c(c(C)c1NC(=O)CC(C)(C)C)C(c1ccc(C(C)CC(=O)O)cc1)CO2 (configuration not stated)	209 to 210
Cc1csc2ncc(C=O)n12	163 to 165
CCOC(=O)C1C(=O)CC(C)(O)C(C(=O)OCC)C1c1cccc2oc3c(c12)CCCC3 (configuration not stated)	155 to 157
CN(c1ccccc1)P(N)(N)=O	97 to 99
CC(=O)OCC1OC(n2c(Cl)c(C#N)c3cc(Cl)c(Cl)cc32)C(O)C1O (configuration not stated)	103 to 104
O=C(OCc1ccccn1)c1cccc(-n2cnc3cc(-c4ccccc4)ccc32)c1	149 to 150
NC(=O)c1cc([N+](=O)[O-])c(Cl)cc1N1CC1	155

Now from value to compound:

melting point [°C]	Compound
133 to 135	CS(=O)(=O)c1ccc(-c2cnn(CC(F)(F)F)c(=O)c2Oc2cc(C(F)(F)F)ccc2F)cc1
98 to 99	CCNc1cccc(-c2ccnc3c(C(=O)c4ccccc4)cnn23)c1
101 to 104	CS(=O)(=O)OCCn1nccc1NC=O
> 200	COC(=O)c1ccc(N2CCNC2=O)cc1
94 to 95	Fc1cc(Cl)c2ccc(C(F)(F)F)cc2n1
177 to 179	Brc1ccc(-c2ccc(I)cc2)cc1
278 to 279	CCOC(=O)CN(C)CCCNC(=O)C=CC(=O)Nc1ccc2ncnc(Nc3cccc(Br)c3)c2c1
144 to 145	CCCN1C(=O)C2(c3ccccc3)CC(c3ccc(N)cc3)(C2)C1=O
92 to 94	C=CCONC(=O)c1c([Si](C)(C)C)ccc(Cl)c1Cl
73 to 76	CCOC(=O)c1cnoc1-c1ccc([N+](=O)[O-])cc1
208 to 211	O=C1NCCN1c1ccc(S(=O)(=O)Nc2cccc(Oc3ccccc3)c2)cc1
133 to 136	COc1ccc(NC(=O)C2(C(=O)O)CC2)cc1
110 to 112	C[Si](C)(C)C#Cc1ccc(C(=O)OCc2ccccc2)cc1OCc1ccccc1
142	[N-]=[N+]=CC(=O)c1cccc(S(N)(=O)=O)c1
150 to 151	COC(=O)Nc1nc2c(C(C)C)cc(SC3=C(O)C[C@@](CCc4ccc(O)cc4)(C(C)C)OC3=O)c(C)c2s1
80 to 81	COC(=O)[C@H](O)CCCc1ccc(OCc2nc(-c3ccco3)oc2C)c(OC)c1
210 to 211	COc1ccc(NS(=O)(=O)c2ccc(N3CCNC3=O)cc2)cc1
182	COCCOc1ccc(/C=C/C(=O)NS(=O)(=O)c2ccc(Cl)cc2)c(Oc2ncc(C(F)(F)F)cc2Cl)c1
77 to 81	COC12C=CC(CC1)CC2C(=O)O (configuration not stated)
79 to 82	CC(C)C[C@H](NC(=O)N1CCCCCC1)C(=O)OCc1ccccc1
219 to 220	Nc1ccc(S(=O)(=O)c2cc(-c3cccc(C(F)(F)F)c3)nc(N3CCCC3)c2)cc1

melting point [°C]	Compound
199 to 201	CCCCOc1cc(C(=O)N(C)C)cc(S(N)(=O)=O)c1Cc1ccccc1
75	COc1ccc(Sc2ncc(Cl)cn2)cc1
164	COc1ccc(-c2ccc(OC(C)CC(C)Oc3ccc(-c4ccc(OC)cc4)cc3)cc2)cc1 (configuration not stated)
69 to 70	CCCc1ccc(C2c3c(C)cc(C)c(C)c3OC2(C)C)cc1 (configuration not stated)
> 250	Nc1ncc(C(=O)Cl)cc1Cl
103 to 106	O=C1OC2(CC(c3ccccc3)=NO2)c2ccccc21 (configuration not stated)
247 to 250	COc1cc(-c2ccc3c(c2)CC[C@H]2N(C)C(=O)CC[C@]32C)ccc1O
165 to 167	COC(=O)[C@@H]1COC(=O)N1c1nc(-c2ccc(Br)cc2)cs1
163 to 164	CC(C)(C)c1cc(CCc2ccccc2NC(=O)NCc2cccnc2)cc(C(C)(C)C)c1O
128 to 129	COC(=O)NC=Cc1ccc(OCC(O)CNC(C)C)cc1 (configuration not stated)
184 to 185	CCOC(=O)c1c(Cn2cncn2)nc2sc3c(c2c1-c1ccc(OC)c(OC)c1)CCCN3C(=O)OCc1ccccc1
143 to 145	Nc1ccc(C(=O)c2ccccc2)cc1CC(=O)O
145 to 146	COC(=O)CCCCCCCCOC1OC(CO)C(OC2OC(C)C(O)C(O)C2O)C(O)C1NC(C)=O (configuration not stated)
116 to 117	O=C(c1ccc(S)cc1)c1ccc([N+](=O)[O-])cc1
264 to 266	Cc1[nH]c(C(=O)N2CCC(C(=O)N(C)CCN(C)C)CC2)c(C)c1-c1nc2ccc(C(=O)c3ccccc3)cc2[nH]1
142 to 149	C#CCn1c2ccccc2c2cc(Br)ccc21
140 to 141	Cc1nc2ccccc2c(NCC(O)CO)c1Br (configuration not stated)
148	c1ccc(COc2ccc3[nH]cc(Cc4cccnc4)c3c2)cc1
98 to 100	CCCCCCCCCCc1ccc(C(=O)N(O)CCCC(=O)O)cc1
126 to 127	CCC(CC)O[C@@H]1C=C(C(=O)O)C[C@H](CC(O)CN=[N+]=[N-])[C@H]1NC(C)=O (some centres not stated)
